31 molecules from PubChem BioAssay (NCI) can be followed below.

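96-well plates; 48 h exposure; 5 concentrations. Endpoints by linear interpolation between flanking doses. Not reached: highest tested concentration assigned. Here, GI50 denotes the concentration required for 50% inhibition of growth. The concentration for full growth arrest is given as TGI.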 Bounds are passed on as bounds.

Common to all, as to assay: NCI tumour cell line growth inhibition, 48 h
The test system of experiment [1] is T-47D breast.
For experiment [2], the system named is TK-10 renal.
In experiment [3] the test system is NCI/ADR-RES ovarian.
Experiment [4] deals with SNB-19 CNS.
The test system of experiment [5] is MDA-N.
The test system of experiment [6] is OVCAR-5 ovarian.
Experiment [7] deals with KM12 colon.
Experiment [8] relates to SR leukemia.
Experiment [9] deals with K-562 leukemia.
Experiment [10] concerns UACC-62 melanoma.

As for `Cc1cc2nc3c(C#N)c(-c4ccccc4)/c(=C\Nc4cccc(C(F)(F)F)c4)c(=O)n3c2cc1C`, the TGI in experiment [1], in experiment [2], in experiment [3], in experiment [4], in experiment [5] and in experiment [6] was above 100 µM in each case. The TGI in experiment [7] is above 100 µM.
`Cn1c2ccccc2n2c(=O)c(-c3ccc(O)cc3)nnc12`: the TGI in experiment [1], in [2], in experiment [3], in experiment [4], in experiment [8] and in [6] was above 100 µM throughout. For the same molecule, the TGI in experiment [7] was above 100 µM.
`Nc1nc(Cl)cc(NCC2(CO)CC(CCCCc3ccccc3)C2)n1` (configuration not stated): the TGI in experiment [9], in experiment [10], in [2], in experiment [4], in experiment [8] and in experiment [5] was above 100 µM in each case. The TGI in experiment [6] and in experiment [7] was above 100 µM each time.
As for `CCC1OC2C(CC=C(C)C)=C3OC(C)(O)C(C)(CC)C(O)C3=C3OC(=O)C=C1C32` (configuration not stated), the TGI in [9], in experiment [1], in experiment [10], in [2], in experiment [3] and in [4] was above 100 µM in each case. In addition, the TGI in [6] and in [7] was above 100 µM each time.
For `N=C(/C=C/c1ccc(-c2cn3cc(/C=C/C(=N)N4CCOCC4)ccc3n2)cc1)N1CCOCC1`, the TGI in experiment [9], in experiment [1], in experiment [10], in [2], in [3] and in experiment [4] was above 100 µM throughout. Further, the TGI in experiment [5], in [6] and in experiment [7] was above 100 µM each time.
Take `CCOC(=O)c1c(OCC)[nH]c(=O)c(C(c2ccc(F)cc2)c2c(O)c(C(=O)OCC)c(OCC)[nH]c2=O)c1O`: the TGI in [9] is 50.8 µM; in experiment [1], 32.7 µM; in [10], 30.3 µM; in experiment [2], 67.7 µM; in experiment [3], above 100 µM; in experiment [4], 42.2 µM. Further, the TGI in experiment [8] was 29 µM; in experiment [6], above 100 µM; in experiment [7], 37.7 µM.
In the case of `CC(C)(C)[C@@H]1NC(=O)CN1C(=O)OCc1ccccc1`, the TGI in [9], in experiment [1], in [10], in experiment [2], in experiment [3] and in experiment [4] was above 100 µM each time. For the same molecule, the TGI in experiment [8], in [6] and in [7] was above 100 µM throughout.
Turning to `CC(C)(C)c1cc(C2COC(=O)COCCOCC(=O)OCCOCCO2)cc(C(C)(C)C)c1O` (configuration not stated), the TGI in experiment [9] is above 100 µM; in [1], above 31.6 µM; in [10], above 100 µM; in experiment [2], 32.4 µM; in experiment [3] it was above 100 µM; in experiment [4], above 100 µM. Besides, the TGI in experiment [8] is 64.2 µM; in experiment [6], 54.8 µM; in experiment [7], above 100 µM.
With `Fc1ccc(C(=NCc2ccccc2)N2CCOCC2)cc1`, the TGI in [9], in [10], in experiment [2], in [3], in experiment [4] and in experiment [8] was above 100 µM throughout. Besides, the TGI in experiment [5], in experiment [6] and in [7] was above 100 µM throughout.
In the case of `O=C(CCN1CCCC1)Nc1ccc2c(NCCCCc3ccccc3)c3ccccc3nc2c1`, the GI50 in experiment [10] was 1.67 µM; in experiment [2] it was 1.4 µM; in experiment [3], 11.3 µM; in [6], 1.38 µM; in experiment [7], 1.33 µM. Also, the TGI in [10] came to 3.12 µM; in [2], 2.86 µM; in [3], 59.4 µM; in experiment [6], 2.71 µM; in experiment [7] it was 2.74 µM.
`O=C(/C=C1\N=C(c2ccccc2)N(c2ccc3c(c2)Sc2cc(N4C(=O)/C(=C/C(=O)/C=C/c5ccccc5)N=C4c4ccccc4)ccc2N3)C1=O)/C=C/c1ccccc1`: the TGI in experiment [9] was above 100 µM; in experiment [1], above 100 µM; in experiment [10], 33.3 µM; in [2] it was above 100 µM; in experiment [3], above 100 µM; in [4], 80 µM. The TGI in experiment [6] is 48.8 µM; in experiment [7] it was above 100 µM.
Take `CC(C)C[C@H](NC(=O)[C@@H](Cc1cccc2ccccc12)NC(=O)N1CCOCC1)B(O)O`: the TGI in experiment [9] is 46.6 µM; in [1], 5.43 µM; in [10], 16 µM; in experiment [2], 25.4 µM; in experiment [3], above 100 µM; in experiment [4] it was above 100 µM. The TGI in experiment [8] came out at 19.4 µM; in [6], 13.5 µM; in [7], 20 µM.
In the case of `CC1(C)OC1CC/C(=C/CBr)CBr` (configuration not stated), the TGI in experiment [9] worked out at 49 µM; in [2], 32.5 µM; in [3], 49.6 µM; in experiment [4], 28.6 µM; in experiment [8], 64.6 µM; in [5], 29.3 µM. The TGI in experiment [6] stood at 31.5 µM; in experiment [7], 29.9 µM.
Turning to `COC(=O)CP1(=O)OC2C(C3CCC2(C)C3(C)C)N1c1cc(C(F)(F)F)cc(C(F)(F)F)c1` (configuration not stated), the TGI in experiment [9] is 68.3 µM; in experiment [1], 71 µM; in experiment [10] it was above 100 µM; in [2] it was 75.2 µM; in experiment [3], 55.9 µM; in [4], above 100 µM. For the same molecule, the TGI is 62.6 µM in [8], above 100 µM in [6] and 54.7 µM in [7].
As to `CC(=O)c1nc2ccccc2n1CC(=O)c1ccc([N+](=O)[O-])cc1`, the TGI was above 100 µM in [9]; above 100 µM in experiment [1]; 60.9 µM in experiment [10]; above 100 µM in [2]; 49.2 µM in experiment [3]; 74.2 µM in experiment [4]. In addition, the TGI in [8] is above 100 µM; in experiment [7], 47.3 µM.
On to `CC1(C)COC(c2cccc(C3=NC(C)(C)CO3)c2)=N1`, for which the TGI in [9], in experiment [1], in [10], in experiment [2], in [3] and in experiment [4] was above 100 µM throughout. Moreover, the TGI in [8], in experiment [6] and in [7] was above 100 µM throughout.
With `O=c1[nH]c2ccc(CC(=S)N3CCN(c4ccccc4)CC3)cc2s1`, the TGI in experiment [9] is above 100 µM; in experiment [10], above 100 µM; in experiment [2] it was above 100 µM; in experiment [3] it was 69.3 µM; in [4], above 100 µM; in experiment [8], above 100 µM. Also, the TGI is above 100 µM in experiment [5], 84.5 µM in experiment [6] and above 100 µM in [7].
Consider `CCOC(=O)/C(O)=C(\C=N\C(=S)Nc1ccc(Cl)c(Cl)c1)C(=O)OCC`, for which the TGI in experiment [10], in experiment [2], in experiment [3], in experiment [4], in experiment [8] and in [5] was above 100 µM in each case. Moreover, the TGI in experiment [6] and in experiment [7] was above 100 µM each time.
Take `OC(Cn1cncn1)(Cn1cncn1)c1ccc(Cl)cc1Cl`: the TGI in experiment [9], in [10], in experiment [2], in [8], in [6] and in [7] was above 100 µM throughout.
Take `Cc1ccc(S(=O)(=O)OC2CN3CCC2CC3)cc1` (configuration not stated): the TGI in experiment [9], in [1], in experiment [10], in [2], in [3] and in experiment [4] was above 100 µM each time. Further, the TGI in experiment [8], in experiment [6] and in experiment [7] was above 100 µM in each case.
In the case of `C=C1C(=O)O[C@H]2C1C[C@@H](O)[C@@]1(C)OC1CC[C@@]1(C)O[C@H]21` (some centres not stated), the TGI in experiment [9] is 32.5 µM; in experiment [10] it was 31.4 µM; in experiment [2], 35.3 µM; in experiment [3], 64 µM; in experiment [4] it was above 100 µM; in experiment [8], 39.8 µM. Besides, the TGI was determined as 63.9 µM in [6] and 53.2 µM in experiment [7].
With `C#CCNC(Cc1ccccc1)C(=O)O` (configuration not stated), the TGI in [9], in experiment [1], in [10], in experiment [2], in experiment [3] and in experiment [4] was above 100 µM each time. In addition, the TGI in [8], in experiment [6] and in experiment [7] was above 100 µM throughout.
Take `N#CC(C(=O)c1ccccc1F)c1nc2cc(C(F)(F)F)ccc2s1` (configuration not stated): the TGI in [1] is above 100 µM; in experiment [2], above 100 µM; in experiment [3] it was above 100 µM; in experiment [6], 89.6 µM; in [7], above 100 µM.
Consider `COC(=O)c1nc2c(C)c(O)c(O)c([C@H](C)CCC=C(C)C)c2o1`, for which the TGI is above 100 µM in experiment [9]; above 100 µM in experiment [1]; above 100 µM in experiment [2]; above 100 µM in experiment [3]; above 100 µM in experiment [4]; 78.5 µM in [8]. In addition, the results for the TGI in experiment [6] and in experiment [7] were above 100 µM and 67.4 µM, respectively.
Regarding `COc1cc(-c2ccc(-c3ccc(C(=N)N)s3)s2)cc(OC)c1OC`, the GI50 in experiment [9] is 1.11 µM; in [10], 1.7 µM; in experiment [2], 2.7 µM; in [3], 3.44 µM; in experiment [6] it was 1.47 µM. For the same molecule, the TGI was determined as 3.41 µM in experiment [9]; 3.17 µM in experiment [10]; 7.34 µM in [2]; 12.9 µM in [3]; 3.25 µM in [6].
Consider `N#Cc1nn(-c2ccc(Cl)cc2)c(N)c2c(=N)n3nc(-c4ccccc4)cc3nc12`, for which the TGI in experiment [9] was above 100 µM; in [10] it was above 35.7 µM; in [2], above 100 µM; in [4], above 100 µM; in [8] it was 10.7 µM; in [7], above 100 µM.
As to `CCOC(=O)Cc1csc(/N=C\c2c(O)c3ccccc3oc2=O)n1`, the TGI was above 100 µM in experiment [10]; above 100 µM in experiment [2]; 64 µM in experiment [3]; above 100 µM in experiment [4]; 52 µM in [8]; above 100 µM in [6]. The molecule further displayed a TGI in [7] above 100 µM.
For `C[Si](C)(C)C#C[I+]c1ccccc1`, the TGI in [9], in experiment [10], in [2], in experiment [4], in [6] and in experiment [7] was above 100 µM each time.
In the case of `Cc1cccc(Nc2cn(CCOc3ccccc3)c(=O)[nH]c2=O)c1`, the TGI in experiment [9] is above 100 µM; in experiment [10], above 100 µM; in experiment [3], 9.06 µM; in experiment [4], above 100 µM; in experiment [8], above 100 µM; in experiment [5], above 100 µM. For the same molecule, the TGI in experiment [6] and in [7] was above 100 µM in each case.
In the case of `CCCCN(CCCC)CC(=O)c1ccc2cc(Cl)c3ccccc3c2c1`, the TGI in experiment [9] was above 100 µM; in experiment [1], 76.6 µM; in experiment [10] it was above 100 µM; in experiment [2], above 100 µM; in experiment [3], above 100 µM; in [4], above 100 µM. Further, the TGI in [8], in [6] and in experiment [7] was above 100 µM in each case.
Consider `c1ccc(/C(=N/Nc2cnccn2)c2ncccn2)cc1`, for which the TGI in [9], in experiment [10], in experiment [3], in experiment [4], in experiment [8] and in experiment [5] was above 100 µM in each case. For the same molecule, the TGI in [6] and in experiment [7] was above 100 µM throughout.
